Source: paper PMC3952036 (Cellular and molecular life sciences : CMLS, 2014)

Molecular target: Flag-DOR (murine DOR tagged with Flag at the N-terminus) (Mus musculus, UniProt P32300)
Sequence (P32300 whole entry): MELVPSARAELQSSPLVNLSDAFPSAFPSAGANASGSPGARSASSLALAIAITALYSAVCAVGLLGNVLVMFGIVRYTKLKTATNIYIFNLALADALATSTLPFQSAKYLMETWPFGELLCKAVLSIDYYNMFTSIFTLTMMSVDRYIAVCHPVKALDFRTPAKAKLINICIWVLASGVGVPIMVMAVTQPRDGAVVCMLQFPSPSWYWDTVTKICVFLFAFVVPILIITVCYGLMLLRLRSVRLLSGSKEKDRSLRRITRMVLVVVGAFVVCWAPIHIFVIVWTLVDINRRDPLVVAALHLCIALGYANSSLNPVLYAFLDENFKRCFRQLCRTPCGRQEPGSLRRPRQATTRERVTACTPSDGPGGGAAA

## C=CCN1C[C@H](C)N([C@H](c2ccc(C(=O)N(CC)CC)cc2)c2cccc(OC)c2)C[C@H]1C [SNC-80, (1)-4-[(αR)-α-((2S,5R)-4-allyl-2,5-dimethyl-1-piperazinyl)-3-methoxybenzyl]-N,N-diethylbenzamide]
  log KA ± SEM (M): −6.58 ± 0.43 log M
